“And” between values parts separate entries of the source, which are not always exact repeats. Equal entries are not always repeated. Ends that are not written are not given here.
Assays:
[1] = test system: mouse forebrain neural stem cells; test: neurosphere expansion assay, shift from symmetric to asymmetric division of neural stem cells; format: cell-based; settings: nanomolar concentrations
Source text: To determine whether NRPs could induce a shift of cells within neurospheres from symmetric (two stem cells, both stem cells) to asymmetric division of neural stem cells (1 stem cell, 1 neuronal progenitor or neuroblast cell), as has been described for erythropoietin (EPO) by Shingo et al. (2001), neurospheres were dissociated by trituration and seeded for expansion at a density of 200,000 cells/well in 6 well plates in NSA medium with EGF only, EGF plus varying concentrations of an NRP, or EGF plus 10 U/ml EPO. One half of the medium with fresh NRP compound was exchanged every other day. After 7 days the cells from the neurospheres were plated. In the presence of EGF, cells retain symmetric cell division. With the removal of EGF, cells begin to differentiate (asymmetric cell division). Subsequently, the cells were subjected to a differentiation assay as described below, with the exception that bFGF was not added to the plating medium for the initial 24 h and differentiation for 7 days was allowed in control medium without NRPs or other compounds. In cells that had never been exposed to an NRP, the numbers of neuroblast cells were lower than in cells that had been exposed to an NRP or EPO. Therefore, NRPs can increase the differentiation of undifferentiated stem cells into neuroblast cells.

[2] = test system: thalamic parvalbumin-ir neurons; test: BrdU/parvalbumin proliferation within thalamocortical OTCs; format: cell-based, rat; settings: 3 nM
Description: Thalamocortical OTCs from rats, as described above in Examples 3 and 4 were incubated at the start of cultivation with 2 μM of BrdU that was removed after 24 hours of cultivation time. OTCs were fixed in 4% paraformaldehyde in 0.1 M phosphate buffer (pH 7.4). Blocking was done in 0.4% Triton and 10% normal goat serum in PBS for 30 minutes. Subsequently the cultures were treated for 30 minutes in 2N HCl at 37° C. and neutralized by 0.1 M Na2B4O7 for 2×5 minutes. Internal peroxidase activity was prevented by 5 minute treatment of the OTCs in 1% H2O2 (only in case of the PAP reaction). Primary antibody (mouse anti-BrdU 1/50-Sigma) reaction was done overnight in 0.4% Triton, 2% BSA in PBS.
Biotinylated goat anti-mouse IgG was applied (1/200 for 2 h) with the subsequent application of the avidin biotin horseradish peroxidase system and the final DAB-detection (0.05%); 0.009% H2O2 enhanced by 0.025% cobalt chloride and 0.02% nickel ammonium sulphate. BrdU-positive nuclei become black stained. […] For double fluorescence detection, mouse anti-BrdU IgG and rabbit anti-parvalbumin IgG (or rabbit anti-calretinin 1/1000) were given simultaneously after the neutralisation step and anti-parvalbumin antibody binding was detected by the biotin-streptavidin/Cy2 detection system while the occurrence of BrdU was monitored by an anti-mouse/Cy3 IgG. […]

cerebellar microexplants = test: cerebellar microexplant proliferation assay under injury (BrdU-positive nuclei); format: cell-based, rat
Description: Using the toxins described above, cerebellar explants were exposed for 24 hours, at the beginning of culturing to dilutions of NRP and 0.1 μM BrdU. Subsequently, 80% of the medium was changed without addition of new toxins and NRPs. The cerebellar cultures were fixed as described above after 3 days in vitro. The detection of the incorporated BrdU level was performed as described previously. Under these conditions, over 99% of the cells in the cerebellar population were neurons. Therefore any increase in cell number after NRP administration was most likely due to neuronal cell proliferation.
For statistical analysis of proliferation four fields (each field having an area of 0.65 mm^2) of each fixed cerebellar culture displaying highest density of BrdU-positive nuclei were chosen, and BrdU-positive nuclei were counted. Statistical significance was measured by Student's t-test.
Laminated cerebellar cortex was extracted from P3/4, P7/8 rat pups and triturated through gauze having a 125 μm pore size to obtain uniformly sized microexplants. After centrifugation for 3 minutes at 61 g and the pellet was resuspended in StartV medium (Biochrom) and the suspension seeded on poly-D-lysine coated coverslips in 6-well plates and incubated for 3 hrs to allow adherence, before 1 ml StartV per well was added. As described previously, glutamate/3-NP and NRP were also added. The explants are cultivated at 34° C. at 5% CO2 and 100% humidity for 48-72 hrs. BrdU was administered at start of cultivation for proliferation rate measurements and cells are counted per microscopic field after 48-72 hrs.

## KDPEARRAPGSLHPCLAAS-NH2 [NRP-2 segment KS, 19-mer fragment of NRP-2]
[1]
  production of neuronal progenitors: promoted the production of neuronal progenitors at the expense of multipotent stem cells

## NRP-1: rat 16 amino acid neural regeneration peptide purified from hippocampal OTC supernatant, Tyr Asp Pro Glu ... Cys His-NH2 (YDPEAASAPGSGNPCH-NH2)
[2]; 5 days in vitro
  parvalbumin-ir thalamic neurons co-localised with BrdU: 6.8±1.3% and 6.8%
[2]; vs defined medium alone
  enhanced proliferation of parvalbumin expressing neurons compared to controls: up to 150%

## SEPEARRAPGRKGGVVCASLAADW-NH2 [NRP-7 segment SW, 24-mer form of mouse NRP-7]
Cerebellar microexplants; 0.1 pM
  up regulation of the proliferation rate observed for injured cerebellar microexplants: 252.6%
Cerebellar microexplants; 100 pM
  up regulation of the proliferation rate observed for injured cerebellar microexplants: 123.7%
Cerebellar microexplants; neurons injured using 3-NP/glutamate
  enhancement of the proliferation rate: more than 200%
